{
  "source": "paper PMC8544245",
  "about": "(Journal of medicinal chemistry, 2020)",
  "key": {"[1]": {"test_system": "elastase-induced emphysema (lung tissue destruction)", "assay": "Murine model of elastase-induced emphysema, mean linear intercept", "assay_type": "in vivo, C57BL/6 mice", "conditions": "PPE intranasal, i.p. treatment once daily for 7 days from day 2, read at day 21"}, "hMMP-12 [2]": {"target": "T1, hMMP-12 (Homo sapiens, UniProt P39900)", "T1 sequence (P39900 106-263)": "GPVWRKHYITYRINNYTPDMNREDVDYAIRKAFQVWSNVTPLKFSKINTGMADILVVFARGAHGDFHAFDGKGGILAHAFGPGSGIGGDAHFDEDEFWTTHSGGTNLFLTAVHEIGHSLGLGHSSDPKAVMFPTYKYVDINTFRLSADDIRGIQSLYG", "assay": "SensoLyte 520 MMP-12 Fluorimetric Assay Kit enzymatic inhibition assay", "assay_type": "biochemical"}, "MMP-1 [3]": {"target": "T2, MMP-1 (Homo sapiens, UniProt P03956)", "T2 sequence (P03956 100-269 limits assumed)": "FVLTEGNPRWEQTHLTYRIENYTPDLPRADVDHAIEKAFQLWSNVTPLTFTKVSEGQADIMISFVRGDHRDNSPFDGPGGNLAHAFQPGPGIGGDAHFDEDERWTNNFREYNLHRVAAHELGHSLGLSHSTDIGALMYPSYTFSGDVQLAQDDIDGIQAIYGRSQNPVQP", "assay": "SensoLyte 520 Fluorimetric Assay Kit selectivity assay, MMP-1", "assay_type": "biochemical", "conditions": "agents tested at 25 nM or at 4 nM (Figure 5)"}, "MMP-3 [4]": {"target": "T3, MMP-3 (Homo sapiens, UniProt P08254)", "T3 sequence (P08254 100-272 limits assumed)": "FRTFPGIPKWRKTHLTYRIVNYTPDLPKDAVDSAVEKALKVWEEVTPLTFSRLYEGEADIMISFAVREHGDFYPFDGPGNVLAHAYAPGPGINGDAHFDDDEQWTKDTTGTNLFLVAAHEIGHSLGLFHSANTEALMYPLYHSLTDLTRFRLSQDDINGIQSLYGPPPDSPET", "assay": "SensoLyte 520 Fluorimetric Assay Kit selectivity assay, MMP-3", "assay_type": "biochemical", "conditions": "agents tested at 25 nM or at 4 nM (Figure 5)"}, "MMP-9 [5]": {"target": "T4, MMP-9 (Homo sapiens, UniProt P14780)", "T4 sequence (P14780 107-444 limits assumed)": "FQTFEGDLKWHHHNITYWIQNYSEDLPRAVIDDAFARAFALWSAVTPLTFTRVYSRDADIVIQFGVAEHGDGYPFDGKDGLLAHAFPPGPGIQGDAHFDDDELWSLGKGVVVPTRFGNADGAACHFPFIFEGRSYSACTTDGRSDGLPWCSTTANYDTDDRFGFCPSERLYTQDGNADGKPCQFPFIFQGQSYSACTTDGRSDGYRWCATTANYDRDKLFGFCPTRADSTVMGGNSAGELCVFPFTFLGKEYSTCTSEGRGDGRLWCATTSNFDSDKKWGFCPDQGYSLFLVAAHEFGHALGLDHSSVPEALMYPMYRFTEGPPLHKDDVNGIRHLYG", "assay": "SensoLyte 520 Fluorimetric Assay Kit selectivity assay, MMP-9", "assay_type": "biochemical", "conditions": "agents tested at 25 nM or at 4 nM (Figure 5)"}, "MMP-13 [6]": {"target": "T5, MMP-13 (Homo sapiens, UniProt P45452)", "assay": "SensoLyte 520 Fluorimetric Assay Kit selectivity assay, MMP-13", "assay_type": "biochemical", "conditions": "agents tested at 25 nM or at 4 nM (Figure 5)"}, "MMP-14 [7]": {"target": "T6, MMP-14 (Homo sapiens, UniProt P50281)", "assay": "SensoLyte 520 Fluorimetric Assay Kit selectivity assay, MMP-14", "assay_type": "biochemical", "conditions": "agents tested at 25 nM or at 4 nM (Figure 5)"}, "[8]": {"assay_type": "in vivo", "conditions": "30 mg/kg i.p., Balb-C mice; converted from ng/ml"}, "[9]": {"assay": "Solubility in the dosing formulation", "assay_type": "physicochemical", "conditions": "10% DMSO, 40% PEG400, and 10% (2-hydroxypropyl)-Beta-cyclodextrin in PBS"}, "hMMP-12 [10]": {"target": "T1, hMMP-12", "conditions": "read-out: IC50 for hMMP-12 inhibition; dose response (Figure 2B); cited from earlier work"}, "MMP-1 [11]": {"target": "T2, MMP-1", "conditions": "even at 1 μM; cited from earlier work"}, "MMP-3 [12]": {"target": "T3, MMP-3", "conditions": "at 55 nM; cited from earlier work"}, "MMP-9 [13]": {"target": "T4, MMP-9", "conditions": "even at 1 μM; cited from earlier work"}, "MMP-13 [14]": {"target": "T5, MMP-13", "conditions": "even at 1 μM; cited from earlier work"}, "MMP-14 [15]": {"target": "T6, MMP-14", "conditions": "even at 1 μM; cited from earlier work"}},
  "note": "Values joined by “and” are separate entries in the source; they are usually repeats but may differ in a detail not shown here. Equal entries are not always repeated. Where two headings read alike, the source gives them in different places. Non-standard residues stand in square brackets, D forms with d. Residues, ends and D or L forms follow the SMILES beside them. *: point of attachment. d(hPhe) = N[C@H](CCc1ccccc1)C(=O)O; Bn = c1ccc(C*)cc1; NHOH = ON*",
  "data": [
    {"smiles": "COC(=O)Nc1ccc2oc3cc(S(=O)(=O)N[C@H](C(=O)O)C(C)C)ccc3c2c1", "note": "[MMP408, (S)-2-(8-(methoxycarbonylamino)dibenzo[b,d]furan-3-sulfonamido)-3-methylbutanoic acid, reference compound]", "values": [
      {"measurement": "emphysema-like pathology (MLI) compared to PPE + vehicle-treated mice", "setting": "[1]", "value": "significant decrease"}
    ]},
    {"smiles": "COc1ccc(CC[C@@H](NC(=O)[C@H](CCCc2ccccc2)NC(=O)CN2CCOCC2)C(=O)N[C@H](Cc2ccc(C)cc2)C(=O)NO)cc1", "note": "[compound 25]", "values": [
      {"measurement": "mode of hMMP-12 inhibition", "setting": "hMMP-12 [2]", "value": "competitive inhibitors"},
      {"measurement": "inhibition of MMP-1", "setting": "MMP-1 [3]", "value": "did not display significant inhibition"},
      {"measurement": "inhibition of MMP-3", "setting": "MMP-3 [4]", "value": "appreciable inhibition"},
      {"measurement": "inhibition of MMP-9", "setting": "MMP-9 [5]", "value": "did not display significant inhibition"},
      {"measurement": "inhibition of MMP-13", "setting": "MMP-13 [6]", "value": "did not display significant inhibition"},
      {"measurement": "inhibition of MMP-14", "setting": "MMP-14 [7]", "value": "did not display significant inhibition"},
      {"measurement": "peak plasma drug concentration", "setting": "[8]", "value": "~ 580 nM"},
      {"measurement": "solubility in formulation", "setting": "[9]", "value": "soluble"},
      {"measurement": "emphysema-like pathology (MLI) compared to PPE + vehicle-treated mice", "setting": "[1]", "value": "significant decrease"}
    ]},
    {"smiles": "CNC(=O)[C@H](Cc1c[nH]c2ccccc12)NC(=O)[C@@H](CC(=O)NO)CC(C)C", "note": "[GM6001, reference compound]", "values": [
      {"measurement": "inhibition of MMP-3", "setting": "MMP-3 [4]", "value": "appreciable inhibition"}
    ]},
    {"smiles": "COc1ccc(CCC[C@H](NC(=O)CN2CCOCC2)C(=O)N[C@H](CCc2ccc(OC)cc2)C(=O)N[C@H](Cc2ccc(C)cc2)C(=O)NO)cc1", "note": "[compound 26]", "values": [
      {"measurement": "mode of hMMP-12 inhibition", "setting": "hMMP-12 [2]", "value": "competitive inhibitors"},
      {"measurement": "inhibition of MMP-1", "setting": "MMP-1 [3]", "value": "did not display significant inhibition"},
      {"measurement": "inhibition of MMP-3", "setting": "MMP-3 [4]", "value": "appreciable inhibition"},
      {"measurement": "inhibition of MMP-9", "setting": "MMP-9 [5]", "value": "did not display significant inhibition"},
      {"measurement": "inhibition of MMP-13", "setting": "MMP-13 [6]", "value": "did not display significant inhibition"},
      {"measurement": "inhibition of MMP-14", "setting": "MMP-14 [7]", "value": "did not display significant inhibition"},
      {"measurement": "emphysema-like pathology (MLI) compared to PPE + vehicle-treated mice", "setting": "[1]", "value": "significant decrease"}
    ]},
    {"smiles": "CC(=O)N[C@@H](COCc1ccccc1)C(=O)N[C@H](CCc1ccccc1)C(=O)N[C@H](Cc1ccccc1)C(=O)NO", "note": "[compound 1] (Ac-Ser(Bn)-[d(hPhe)]-[dF]-{NHOH})", "values": [
      {"measurement": "IC50", "setting": "hMMP-12 [10]", "value": "~30 nM and 29.7 nM"},
      {"measurement": "inhibition of MMP-1", "setting": "MMP-1 [11]", "value": "did not significantly inhibit"},
      {"measurement": "inhibition of MMP-3", "setting": "MMP-3 [12]", "value": "~ 19%"},
      {"measurement": "inhibition of MMP-9", "setting": "MMP-9 [13]", "value": "did not significantly inhibit"},
      {"measurement": "inhibition of MMP-13", "setting": "MMP-13 [14]", "value": "did not significantly inhibit"},
      {"measurement": "inhibition of MMP-14", "setting": "MMP-14 [15]", "value": "did not significantly inhibit"}
    ]}
  ]
}
